Results: the NIST ThermoML archive (doi:10.1021/acs.jced.6b00168)
“And” between values parts separate entries of the source, which are not always exact repeats. Equal values may be shown once. Numbers after ± are expanded uncertainties.

How the values were obtained:
[1] = mn = molality of the nth substance listed, in mol/kg; settings: 100 kPa, Liquid; for speed of sound: Frequency=3 MHz, Sing-around technique in a fixed-path interferometer; for mass density: Vibrating tube method
[2] = 298.15 K; 100 kPa; Liquid; Frequency=3 MHz; Sing-around technique in a fixed-path interferometer

O=C(N[C@H](CO)[C@H](O)c1ccc([N+](=O)[O-])cc1)C(Cl)Cl + O
[1]
Settings	mass density, 288.15 K [kg/m3]	mass density, 298.15 K [kg/m3]	mass density, 308.15 K [kg/m3]	mass density, 318.15 K [kg/m3]	speed of sound, 288.15 K [m/s]	speed of sound, 298.15 K [m/s]	speed of sound, 308.15 K [m/s]	speed of sound, 318.15 K
m1 = 0.0005	999.273 ± 0.23	997.209 ± 0.23	994.205 ± 0.23	990.372 ± 0.23	1466.9 ± 1.6	1496 ± 1.6	1519.6 ± 1.6	1536.2 ± 1.6 m/s
m1 = 0.001	999.429 ± 0.23	997.363 ± 0.23	994.356 ± 0.23	990.522 ± 0.23	1467 ± 1.6	1496.1 ± 1.6	1519.7 ± 1.6	1536.4 ± 1.6 m/s
m1 = 0.002	999.643 ± 0.23	997.576 ± 0.23	994.56 ± 0.23	990.713 ± 0.23	1467.1 ± 1.6	1496.2 ± 1.6	1519.9 ± 1.6	1536.8 ± 1.6 m/s and 1536.5 ± 1.6 m/s
m1 = 0.004	999.922 ± 0.23	997.847 ± 0.23	994.831 ± 0.23	990.992 ± 0.23	1467.5 ± 1.6	1496.7 ± 1.6	1520.2 ± 1.6	1536.8 ± 1.6 m/s

O [water]
Settings	speed of sound [m/s]
[2]	1495.9 ± 1.6
